ChEMBL document CHEMBL3124779, “Discovery of ABT-267, a pan-genotypic inhibitor of HCV NS5A” (J Med Chem, 2014)
Values after ≈ are worked out from the molar mass of the structure shown.

Columns and labels:
[1] = Volume of distribution at steady state in dog at 1 mg/kg, iv; type: ADME, organism-based, Canis lupus familiaris; set-up: dose 1 mg/kg, route intravenous; details: in vivo, read-out: Vdss
[2] = Lipophilicity, log D of the compound at pH 7.4 by HPLC analysis; type: physicochemical; details: buffer
[3] = Oral bioavailability in dog at 2.5 mg/kg; type: ADME, organism-based, Canis lupus familiaris; details: in vivo
[4] = Metabolic stability in human liver microsomes assessed as compound remaining after 30 mins; type: ADME; details: read-out: Stability
[5] = test system: Hepatitis C virus; assay: Antiviral activity against HCV1a H77 infected in human HuH7 cells assessed as inhibition of viral replication after 4 days by luciferase reporter gene assay in presence of 40% human plasma; type: functional, organism-based, Hepacivirus hominis; details: genotype 1a H77, Huh-7, Plasma, 96 h
[6] = Kinetic solubility of the compound in 10 mM of phosphate buffer at pH 7.2 by CLND method; type: physicochemical; details: read-out: Kinetic_solubility
[7] = Half life in dog at 2.5 mg/kg, po; type: ADME, organism-based, Canis lupus familiaris; set-up: dose 2.5 mg/kg, route oral; details: in vivo
[8] = Volume of distribution at steady state in rat at 3 mg/kg, iv; type: ADME, organism-based; set-up: dose 3 mg/kg, route intravenous; details: in vivo, read-out: Vdss
[9] = Cmax in rat at 3 mg/kg, po; type: ADME, organism-based; set-up: dose 3 mg/kg, route oral; details: in vivo
[10] = Half life in dog at 1 mg/kg, iv; type: ADME, organism-based, Canis lupus familiaris; set-up: dose 1 mg/kg, route intravenous; details: in vivo
[11] = test system: Hepatitis C virus; assay: Antiviral activity against HCV1b Con1 infected in human HuH7 cells assessed as inhibition of viral replication after 4 days by luciferase reporter gene assay; type: functional, organism-based, Hepacivirus hominis; details: isolate Con1, Huh-7, 96 h
[12] = Cmax in dog at 2.5 mg/kg, po; type: ADME, organism-based, Canis lupus familiaris; set-up: dose 2.5 mg/kg, route oral; details: in vivo
[13] = AUC in dog at 2.5 mg/kg, po; type: ADME, organism-based, Canis lupus familiaris; set-up: dose 2.5 mg/kg, route oral; details: plasma
[14] = test system: Hepatitis C virus; assay: Antiviral activity against HCV1b Con1 infected in human HuH7 cells assessed as inhibition of viral replication after 4 days by luciferase reporter gene assay in presence of 40% human plasma; type: functional, organism-based, Hepacivirus hominis; details: isolate Con1, Huh-7, Plasma, 96 h
[15] = AUC in rat at 3 mg/kg, po; type: ADME, organism-based; set-up: dose 3 mg/kg, route oral; details: plasma
[16] = Half life in rat at 3 mg/kg, iv; type: ADME, organism-based; set-up: dose 3 mg/kg, route intravenous; details: in vivo
[17] = test system: Hepatitis C virus; assay: Ratio of EC50 for HCV1b Con1 infected in human HuH7 cells in presence of 40% human plasma to EC50 for HCV1b Con1 infected in human HuH7 cells in absence of 40% human plasma; type: functional, Hepacivirus hominis, isolate Con1, Huh-7
[18] = Metabolic stability in rat liver microsomes assessed as compound remaining after 30 mins; type: ADME; details: read-out: Stability
[19] = Oral bioavailability in rat at 3 mg/kg; type: ADME, organism-based; details: in vivo
[20] = Clearance in rat at 3 mg/kg, iv; type: ADME, organism-based; set-up: dose 3 mg/kg, route intravenous; details: in vivo
[21] = test system: Hepatitis C virus; assay: Ratio of EC50 for HCV1a H77 infected in human HuH7 cells in presence of 40% human plasma to EC50 for HCV1a H77 infected in human HuH7 cells in absence of 40% human plasma; type: functional, Hepacivirus hominis, genotype 1a H77, Huh-7
[22] = Half life in rat at 3 mg/kg, po; type: ADME, organism-based; set-up: dose 3 mg/kg, route oral; details: in vivo
[23] = test system: Hepatitis C virus; assay: Antiviral activity against HCV1a H77 infected in human HuH7 cells assessed as inhibition of viral replication after 4 days by luciferase reporter gene assay; type: functional, organism-based, Hepacivirus hominis; details: genotype 1a H77, Huh-7, 96 h
[24] = Clearance in dog at 1 mg/kg, iv; type: ADME, organism-based, Canis lupus familiaris; set-up: dose 1 mg/kg, route intravenous; details: in vivo
[25] = Tmax in dog at 2.5 mg/kg, po; type: ADME, organism-based, Canis lupus familiaris; set-up: dose 2.5 mg/kg, route oral; details: in vivo
[26] = Tmax in rat at 3 mg/kg, po; type: ADME, organism-based; set-up: dose 3 mg/kg, route oral; details: in vivo

Work on `COC(=O)N[C@H](C(=O)N1CCC[C@H]1C(=O)Nc1ccc([C@@H]2CC[C@@H](c3ccc(NC(=O)[C@@H]4CCCN4C(=O)[C@@H](NC(=O)OC)C(C)C)cc3)N2c2ccc(C(F)(F)F)cc2)cc1)C(C)C` yielded a Vd [1] of 1.3 L/kg, a logD [2] of 4.8 and a bioavailability [3] of 5.5%. The remaining at 0.5 h [4] was 52%, the EC50 [5] was 0.65 nM and the solubility kinetic [6] was 3.4 µM (≈ 3.08 µg/mL). The half-life [7] was 5.8 h, the Vd [8] was 8.9 L/kg and the Cmax [9] was 30 ng/mL. The half-life [10] was 6 h, the EC50 [11] was 0.0071 nM and the Cmax [12] was 70 ng/mL. It also gave an AUC [13] of 850 ng·h/mL, an EC50 [14] of 0.072 nM and an AUC [15] of 500 ng·h/mL. The half-life [16] was 6 h, the “Ratio EC50” value [17] was 10 and the remaining at 0.5 h [18] was 56%. The bioavailability [19] was 16%, the clearance [20] was 20 mL/min/kg and the “Ratio EC50” value [21] was 11. It also gave a half-life [22] of 12.1 h, an EC50 [23] of 0.057 nM and a clearance [24] of 2.67 mL/min/kg. For the same compound, the Tmax [25] was 4.7 h and the Tmax [26] was 2.2 h.

In the case of `COC(=O)N[C@H](C(=O)N1CCC[C@H]1C(=O)Nc1ccc([C@H]2CC[C@H](c3ccc(NC(=O)[C@@H]4CCCN4C(=O)[C@@H](NC(=O)OC)C(C)C)cc3)N2c2ccc(C(F)(F)F)cc2)cc1)C(C)C`, the Vd [1] is reported as 1.5 L/kg, the logD [2] is reported as 4.9 and the bioavailability [3] is reported as 4.2%. The remaining at 0.5 h [4] was 58%, the EC50 [5] was 2.55 nM and the solubility kinetic [6] was 3.2 µM (≈ 2.9 µg/mL). It also gave a half-life [7] of 5.5 h, a Vd [8] of 1.3 L/kg and a Cmax [9] of 200 ng/mL. For the same compound, the half-life [10] was 4.4 h, the EC50 [11] was 0.0062 nM and the Cmax [12] was 50 ng/mL. The AUC [13] was 370 ng·h/mL, the EC50 [14] was 0.077 nM and the AUC [15] was 1360 ng·h/mL. For the same compound, the half-life [16] was 4.2 h, the “Ratio EC50” value [17] was 12 and the remaining at 0.5 h [18] was 58%. The bioavailability [19] was 13%, the clearance [20] was 4.83 mL/min/kg and the “Ratio EC50” value [21] was 9. It also gave a half-life [22] of 4.9 h, an EC50 [23] of 0.299 nM and a clearance [24] of 4.83 mL/min/kg. For the same compound, the Tmax [25] was 1.7 h and the Tmax [26] was 1.5 h.

`COC(=O)N[C@H](C(=O)N1CCC[C@H]1C(=O)Nc1ccc([C@H]2CC[C@H](c3ccc(NC(=O)[C@@H]4CCCN4C(=O)[C@@H](NC(=O)OC)C(C)C)cc3)N2c2ccc(C(C)(C)C)cc2)cc1)C(C)C` showed a logD [2] of 5.2, an EC50 [5] of 0.986 nM and a solubility kinetic [6] of 1.8 µM (≈ 1.61 µg/mL). It also gave a Vd [8] of 2.2 L/kg, a Cmax [9] of 20 ng/mL and an EC50 [11] of 0.0088 nM. For the same compound, the EC50 [14] was 0.09 nM, the AUC [15] was 220 ng·h/mL and the half-life [16] was 5.5 h. For the same compound, the “Ratio EC50” value [17] was 10, the remaining at 0.5 h [18] was 65% and the bioavailability [19] was 3.1%. The clearance [20] was 7.17 mL/min/kg, the “Ratio EC50” value [21] was 7 and the half-life [22] was 8.6 h. The EC50 [23] was 0.138 nM and the Tmax [26] was 4.7 h.

Compound `COC(=O)N[C@H](C(=O)N1CCC[C@H]1C(=O)Nc1ccc([C@@H]2CC[C@@H](c3ccc(NC(=O)[C@@H]4CCCN4C(=O)[C@@H](NC(=O)OC)C(C)(C)C)cc3)N2c2ccc(C(C)(C)C)cc2)cc1)C(C)(C)C` has a remaining at 0.5 h [4] of 78%, an EC50 [5] of 1.06 nM and a solubility kinetic [6] of 1.2 µM (≈ 1.11 µg/mL). For the same compound, the Vd [8] was 2.3 L/kg, the Cmax [9] was 90 ng/mL and the EC50 [11] was 0.0022 nM. The EC50 [14] was 0.117 nM, the AUC [15] was 1250 ng·h/mL and the half-life [16] was 8.2 h. For the same compound, the remaining at 0.5 h [18] was 87%, the bioavailability [19] was 7.2% and the clearance [20] was 2.83 mL/min/kg. It also gave a half-life [22] of 11 h, an EC50 [23] of 0.021 nM and a Tmax [26] of 5.3 h.

In the case of `COC(=O)N[C@H](C(=O)N1CCC[C@H]1C(=O)Nc1ccc([C@H]2CC[C@H](c3ccc(NC(=O)[C@@H]4CCCN4C(=O)[C@@H](NC(=O)OC)C(C)(C)C)cc3)N2c2ccc(C(C)(C)C)cc2)cc1)C(C)(C)C`, the remaining at 0.5 h [4] is reported as 80%, the EC50 [5] is reported as 4.31 nM and the solubility kinetic [6] is reported as 2.2 µM (≈ 2.03 µg/mL). It also gave a Vd [8] of 1.7 L/kg, a Cmax [9] of 90 ng/mL and an EC50 [11] of 0.0084 nM. For the same compound, the EC50 [14] was 0.344 nM, the AUC [15] was 1390 ng·h/mL and the half-life [16] was 10.2 h. For the same compound, the remaining at 0.5 h [18] was 83%, the bioavailability [19] was 7.2% and the clearance [20] was 2.83 mL/min/kg. For the same compound, the half-life [22] was 12.4 h, the EC50 [23] was 0.123 nM and the Tmax [26] was 2.5 h.

With `COC(=O)N[C@H](C(=O)N1CCC[C@H]1C(=O)Nc1ccc([C@@H]2CC[C@@H](c3ccc(NC(=O)[C@@H]4CCCN4C(=O)[C@@H](NC(=O)OC)C(C)C)cc3)N2c2ccc(F)cc2)cc1)C(C)C` the logD [2] was 4.6, the remaining at 0.5 h [4] was 44% and the EC50 [5] was 3.68 nM. For the same compound, the solubility kinetic [6] was 4.1 µM (≈ 3.51 µg/mL), the Vd [8] was 2.4 L/kg and the Cmax [9] was 190 ng/mL. It also gave an EC50 [11] of 0.012 nM, an EC50 [14] of 0.184 nM and an AUC [15] of 750 ng·h/mL. For the same compound, the half-life [16] was 2.6 h, the “Ratio EC50” value [17] was 15 and the remaining at 0.5 h [18] was 49%. For the same compound, the bioavailability [19] was 22%, the clearance [20] was 15 mL/min/kg and the “Ratio EC50” value [21] was 9. For the same compound, the half-life [22] was 3 h, the EC50 [23] was 0.396 nM and the Tmax [26] was 1 h.
